Laboratory results: patent US9393221B2, “Methods and compounds for reducing intracellular lipid storage” (THE GENERAL HOSPITAL CORPORATION, priority 2011, dated 2016)
Structures can show the parent of a compound that is named as a salt.

Tested on: ATGL-KO iPSCs
Test: High throughput iPSC chemical screening, Oil Red O (ORO) lipid accumulation; on Z-score: test concentration or dose not given here
Type: cell-based, mouse
Settings: not given

Molecule | Z-score
CN[C@H](CC(C)C)C(=O)N[C@H]1C(=O)N[C@@H](CC(N)=O)C(=O)N[C@H]2C(=O)N[C@H]3C(=O)N[C@H](C(=O)N[C@H](C(=O)O)c4cc(O)cc(O)c4-c4cc3ccc4O)[C@H](O)c3ccc(c(Cl)c3)Oc3cc2cc(c3O[C@@H]2O[C@H](CO)[C@@H](O)[C@H](O)[C@H]2O[C@H]2C[C@](C)(N)[C@H](O)[C@H](C)O2)Oc2ccc(cc2Cl)[C@H]1O [Vancomycin hydrochloride] | −0.5906
Cytisine (−) | 1.049

Same assay, conditions: glycolytic switch compounds

Molecule | Rank in normalized ORO score from screen
CN(C)CCCN1c2ccccc2Sc2ccc(C(F)(F)F)cc21 [Triflupromazine hydrochloride] | 644

Same assay, conditions: normalized ORO level vs DMSO-treated cells; compound present during 7 days differentiation, 96-well; negative = decrease in lipid accumulation

Molecule | Z-score
Cc1ccc(S(=O)(=O)NC(=O)NN2CCCCCC2)cc1 [Tolazamide] | 1.554
c1ccc(CC2=NCCN2)cc1 [Tolazoline hydrochloride] | 0.3256
CCCCNC(=O)NS(=O)(=O)c1ccc(C)cc1 [Tolbutamide] | −0.8086
Cc1c(Cl)cccc1Nc1ccccc1C(=O)O [Tolfenamic acid] | −0.8256
Cc1ccc(C(=O)c2ccc(CC(=O)O)n2C)cc1 [Tolmetin sodium salt dihydrate] | −1.0425
Cc1cccc(N(C)C(=S)Oc2ccc3ccccc3c2)c1 [Tolnaftate] | 0.2441
C[C@H]1CC[C@]2(NC1)O[C@H]1C[C@H]3[C@@H]4CC[C@H]5C[C@@H](O)CC[C@]5(C)[C@H]4CC[C@]3(C)[C@H]1[C@@H]2C [Tomatidine] | −0.7378
C[C@H]1CC[C@]2(NC1)O[C@H]1C[C@H]3[C@@H]4CC[C@H]5C[C@@H](O[C@@H]6O[C@H](CO)[C@H](O[C@@H]7O[C@H](CO)[C@@H](O)[C@H](O[C@@H]8OC[C@@H](O)[C@H](O)[C@H]8O)[C@H]7O[C@@H]7O[C@H](CO)[C@@H](O)[C@H](O)[C@H]7O)[C@H](O)[C@H]6O)CC[C@]5(C)[C@H]4CC[C@]3(C)[C@H]1[C@@H]2C [Tomatine, reference compound] | −2.0901
Cc1cccc(Nc2ccncc2S(=O)(=O)NC(=O)NC(C)C)c1 [Torsemide] | 0.1541
CCCCNc1c(C(=O)OCC)c(C)nc2c1cnn2CC [Tracazolate hydrochloride] | −1.6368
NC[C@H]1CC[C@H](C(=O)O)CC1 [Tranexamic acid] | 0.05824
N[C@@H]1C[C@H]1c1ccccc1 [Tranylcypromine hydrochloride] | −0.2314
O=c1n(CCCN2CCN(c3cccc(Cl)c3)CC2)nc2ccccn12 [Trazodone hydrochloride] | 0.03974
C(#CCN1CCCC1)CN1CCCC1.Cl.Cl [Tremorine dihydrochloride] | 0.3583
C[C@]12C=CC(=O)C=C1CC[C@H]1[C@@H]3C[C@@H](O)[C@](O)(C(=O)CO)[C@@]3(C)C[C@H](O)[C@@]12F [Triamcinolone] | −1.1722
Nc1nc(N)c2nc(-c3ccccc3)c(N)nc2n1 [Triamterene] | −1.3039
CCOC1O[C@H]([C@@H](COCc2ccccc2)OCc2ccccc2)[C@H](OCc2ccccc2)[C@H]1O (stereo partly drawn) [Tribenoside] | −0.7171
COP(=O)(OC)C(O)C(Cl)(Cl)Cl (stereo not drawn) [Trichlorfon] | 0.2655
NS(=O)(=O)c1cc2c(cc1Cl)NC(C(Cl)Cl)NS2(=O)=O (stereo not drawn) [Trichlormethiazide] | −1.2081
CC[N+](CC)(CC)CCC(O)(c1ccccc1)C1CCCCC1.[Cl-] (stereo not drawn) [Tridihexethyl chloride] | 0.01977
CN1CCN(CCCN2c3ccccc3Sc3ccc(C(F)(F)F)cc32)CC1 [Trifluoperazine dihydrochloride] | 0.5386

Molecule | Z-score
CN(C)CCCN1c2ccccc2Sc2ccc(C(F)(F)F)cc21 [Triflupromazine hydrochloride] | 0.04449
O=c1[nH]c(=O)n([C@H]2C[C@H](O)[C@@H](CO)O2)cc1C(F)(F)F [Trifluridine] | 21.7513
CC(=O)Oc1cc(C(F)(F)F)ccc1C(=O)O [Triflusal] | −1.2041
C[n+]1cccc(C(=O)[O-])c1 [Trigonelline] | −1.518
Cl.OC(CCN1CCCCC1)(c1ccccc1)C1CCCCC1 (stereo not drawn) [Trihexyphenidyl-D,L Hydrochloride] | 1.258
COc1ccc(CN2CCNCC2)c(OC)c1OC [Trimetazidine dihydrochloride] | 0.9654
CN1C(=O)OC(C)(C)C1=O [Trimethadione] | −0.8958
COc1cc(C(=O)NCc2ccc(OCCN(C)C)cc2)cc(OC)c1OC [Trimethobenzamide hydrochloride] | 1.06
COc1cc(Cc2cnc(N)nc2N)cc(OC)c1OC [Trimethoprim] | −0.9568
COc1cc2c(c(OC)c1OC)-c1ccc(O)c(=O)cc1C(N)CC2 (stereo not drawn) [Trimethylcolchicinic acid] | 0.4127
Cc1cc2cc3c(C)cc(=O)oc3c(C)c2o1 [Trioxsalen] | 1.359
Cc1ccc(/C(=C\CN2CCCC2)c2ccccn2)cc1 [Triprolidine hydrochloride] | −1.0644
CO[C@H]1C[C@H](O[C@H]2[C@H](C)[C@@H](O[C@@H]3O[C@H](C)C[C@H](N(C)C)[C@H]3OC(C)=O)[C@@H](C)C[C@@]3(CO3)C(=O)[C@H](C)[C@@H](OC(C)=O)[C@@H](C)[C@@H](C)OC(=O)[C@@H]2C)O[C@@H](C)[C@@H]1OC(C)=O [Troleandomycin] | −0.5429
Cc1c(C)c2c(c(C)c1O)CCC(C)(C(=O)O)O2 (stereo not drawn) [Trolox] | −1.1986
CN1[C@@H]2CC[C@H]1C[C@@H](O)C2 [Tropine] | −0.2952
COc1cc2c3cc1Oc1cc(ccc1O)C[C@@H]1c4c(cc(OC)c(O)c4Oc4ccc(cc4)C[C@@H]3N(C)CC2)CC[N+]1(C)C.Cl.O.O.O.O.O.[Cl-] [Tubocurarine chloride pentahydrate (+)] | 0.8961
CO[C@@H]1C=C2CCN(C)[C@@H]2C2c3cc4c(cc3C(=O)OC21)OCO4.O=[N+]([O-])O (stereo partly drawn) [Ungerine nitrate] | −1.1174
COc1ccccc1N1CCN(CCCNc2cc(=O)n(C)c(=O)n2C)CC1 [Urapidil hydrochloride] | −1.2828
C[C@H](CCC(=O)O)[C@H]1CC[C@H]2[C@@H]3[C@@H](O)C[C@@H]4C[C@H](O)CC[C@]4(C)[C@H]3CC[C@]12C [Urosiol] | 0.02187
C[C@H]1[C@H](C)CC[C@]2(C(=O)O)CC[C@]3(C)C(=CC[C@@H]4[C@@]5(C)CC[C@H](O)C(C)(C)[C@@H]5CC[C@]43C)[C@H]12 [Ursolic acid] | −0.1541
COc1ccc(CCN(C)CCCC(C#N)(c2ccc(OC)c(OC)c2)C(C)C)cc1OC.Cl (stereo not drawn) [Verapamyl hydrochloride] | 0.4436

Molecule | Z-score
Nc1ncnc2c1ncn2[C@@H]1O[C@H](CO)[C@@H](O)[C@@H]1O [Vidarabine] | −0.443
C=CC(N)CCC(=O)O (stereo not drawn) [Vigabatrin] | −0.7771
CC[C@]12CCCN3CCc4c(n(c5ccccc45)[C@@](O)(C(=O)OC)C1)[C@@H]32 [Vincamine] | −0.4826
O=c1cc(-c2ccc(O)cc2)oc2c([C@@H]3O[C@H](CO)[C@@H](O)[C@H](O)[C@H]3O)c(O)cc(O)c12 [Vitexin] | −0.0089
O=C(NCCNCC(O)COc1ccc(O)cc1)N1CCOCC1 (stereo not drawn) [Xamoterol hemifumarate] | −0.1402
Cc1cccc(C)c1N=C1NCCCS1 [Xylazine] | −1.0585
Cc1cc(C(C)(C)C)cc(C)c1CC1=NCCN1 [Xylometazoline hydrochloride] | 0.7686
COC(=O)[C@@H]1[C@H]2C[C@H]3c4[nH]c5ccccc5c4CCN3C[C@@H]2CC[C@@H]1O [Yohimbine hydrochloride] | −1.0356
O.O=C(O)[C@@H]1[C@H]2C[C@H]3c4[nH]c5ccccc5c4CCN3C[C@@H]2CC[C@@H]1O [Yohimbinic acid monohydrate] | −0.0239
Nc1ccn([C@H]2CC[C@@H](CO)O2)c(=O)n1 [Zalcitabine] | 2.323
CCCOc1ccccc1-c1nc2nn[nH]c2c(=O)[nH]1 [Zaprinast] | −0.4842
COc1cc(-c2ccc(=O)[nH]n2)ccc1OC(F)F [Zardaverine] | −0.6963
Cc1cn([C@H]2C[C@H](N=[N+]=[N-])[C@@H](CO)O2)c(=O)[nH]c1=O [Zidovudine, AZT] | −0.4063
CN(C)C/C=C(/c1ccc(Br)cc1)c1cccnc1 [Zimelidine dihydrochloride monohydrate] | −0.7577
Cc1cc(CC(=O)O)n(C)c1C(=O)c1ccc(Cl)cc1 [Zomepirac sodium salt] | 0.8794
OCCN1CCN(CC/C=C2/c3ccccc3Sc3ccc(Cl)cc32)CC1 [Zuclopenthixol hydrochloride] | −1.8038
CC1=C2[C@H]3OC(=O)[C@@H](C)[C@@H]3CC[C@@]2(C)C=CC1=O [alpha-Santonin] | −0.8908
CC[N+]1(C)[C@@H]2CC[C@H]1CC(OC(=O)[C@@H]1CC[C@@](C(=O)OC3C[C@H]4CC[C@@H](C3)[N+]4(C)CC)(c3ccccc3)c3ccccc31)C2.[Cl-].[Cl-] (stereo partly drawn) [beta-Belladonnine dichloroethylate] | −0.7978
(S)-(−)-Atenolol | 0.7787
(S)-propranolol hydrochloride | 0.368
(−)-MK 801 hydrogen maleate | −0.2074

Molecule | Z-score
(−)-Quinpirole hydrochloride | 1.311
Alverine citrate salt | −0.9516
Antimycin A | 30.555
Avermectin B1 | −0.9704
Beta-Escin | −1.7261
Bromocryptine mesylate | −0.775
Butirosin disulfate salt | 0.2121
Carbinoxamine maleate salt | 0.218
Clofilium tosylate | 13.6063
Colistin sulfate | −0.5041
Cotinine (−) | 0.644
Cyanocobalamin | −1.3236
Deptropine citrate | −0.0889
Dihydroergotamine tartrate | −0.7032
Dihydroergotoxine mesylate | 1.217
Eburnamonine (−) | −1.0688
Foliosidine | −0.7349
Guanadrel sulfate | −0.4661
